Test results from patent US10676474B2, “1,6-naphthyridine derivatives as CDK4/6 inhibitor” (CSTONE PHARMACEUTICALS, priority 2016, dated 2020).
pIC50: −log10 of the molar value. ≈ marks a conversion by molar mass, not a printed value.

Columns and labels:
[1] = Thermodynamic solubility test (shake-flask, HPLC); assay type: physicochemical; conditions: phosphate buffer, aqueous buffer, thermodynamic from solid; pH = 7.4, Table 3-2; read-out: Thermodynamic solubility
Description: The thermodynamic solubility of the compounds was determined by the shake-flask method and HPLC. The solubility of the compounds is an important property that affects drug screening of compounds and the absorption of compounds in animals and humans. A saturated solution of the compound was first given and quantitatively tested by HPLC to obtain the solubility of the compound.
50 mM phosphate buffer solution, pH 7.4.
Not less than 2 mg of the sample powder was weighed into a vial of Whatman miniuniprep. If test of the thermodynamic solubility of a sample in multiple buffer solutions is required, an individual vial is required for each test.
450 μL of the buffer solution (pH 7.4) was added to each Whatman miniuniprep vial.
After the addition of the buffer solution, the Whatman miniuniprep cap with a filter was mounted and pressed above the liquid level so that the filter could contact with the buffer solution during shaking.
And the observation of the solution was recorded.
It was shaked at 550 RPM for 24 hours at room temperature (about 22 to 25° C.).
The Whatman Miniunipreps filter cap was pressed to the bottom to give the filtrate of the sample solubility solution. All sample vials should be filtered before and after insoluble substances and their leakage.
The buffer was diluted 50 folds to give a sample diluent.
Three UV standards from low to high concentration were injected into HPLC, followed by the injection of the dilutions and supernatants of the tested compounds. The tested sample was injected twice.

[2] = system: colorectal cancer HCT-116 model; assay: In vivo pharmacodynamic study (3), HCT-116 model, tumor volume; set-up: species or system BALB/c nude mice; conditions: 60 mg/kg(D0-D11), 120 mg/kg (D12-D20), PO, QD × 21
Description: The in vivo pharmacodynamic experiments were performed on the BALB/c nude mice implanted subcutaneously with the colorectal cancer HCT-116 model.
BALB/c nude mice, female, 6-8 weeks, weighing approximately 18-22 g, were placed in a single ventilated cage (3-5 mice per cage) under a special pathogen free environment. All of the cages, beddings and water were disinfected before use. All of the animals were permitted free access to a standard certified commercial laboratory diet. A total of 48 mice purchased from Shanghai Lingchang Biotechnology Co., Ltd. were used for the study. Each mouse was implanted subcutaneously with 0.2 mL of 5×10^6 HCT-116 cells in the right back for tumor growth. The dosing in groups initiated when the average tumor volume reached about 132 mm^3. The tumor volume was measured twice a week using a two-dimensional caliper, and the volume was measured in mm^3, calculated by the following the formula: V=0.5 a×b^2, wherein, a and b were the long and short diameters of the tumor, respectively. The antitumor efficacy was determined by dividing the average increase in the tumor volume of the animals treated with the compound by the average increase in the tumor volume of the untreated animals.

CDK4/cyclin D1 = molecular target: T1, CDK4/cyclin D1 (Homo sapiens, UniProt P11802); assay: Enzyme activity assay CDK4/cyclin D1 (Lance Ultra); assay type: biochemical; conditions: 0.3 nM CDK4/cyclin D1, 350 μM ATP, 180 minutes
T1 construct: purchased Life technology
T1 sequence (P11802 whole entry): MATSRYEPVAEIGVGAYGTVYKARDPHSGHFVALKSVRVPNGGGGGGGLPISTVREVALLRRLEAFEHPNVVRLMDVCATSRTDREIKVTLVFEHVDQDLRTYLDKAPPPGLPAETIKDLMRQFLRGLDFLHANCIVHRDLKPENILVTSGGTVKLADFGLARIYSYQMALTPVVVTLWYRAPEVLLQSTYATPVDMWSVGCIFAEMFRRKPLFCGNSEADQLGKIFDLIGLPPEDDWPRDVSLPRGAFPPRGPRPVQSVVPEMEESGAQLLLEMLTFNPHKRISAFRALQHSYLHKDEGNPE
T1 sequence (P24385 whole entry partner): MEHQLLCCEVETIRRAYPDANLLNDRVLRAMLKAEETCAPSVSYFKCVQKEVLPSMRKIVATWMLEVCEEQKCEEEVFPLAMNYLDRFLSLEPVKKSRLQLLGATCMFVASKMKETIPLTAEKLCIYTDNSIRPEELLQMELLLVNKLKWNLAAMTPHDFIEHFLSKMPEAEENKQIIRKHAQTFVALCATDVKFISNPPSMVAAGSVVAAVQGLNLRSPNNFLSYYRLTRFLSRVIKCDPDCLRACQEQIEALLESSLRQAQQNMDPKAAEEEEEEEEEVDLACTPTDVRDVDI
Description: CDK4/cyclin D1, CDK6/cyclin D1 (Life technology). ULight labeled polypeptide substrates ULight-4E-BP1 and ULight-MBP (PerkinElmer). Europium labeled anti-myelin basic protein antibody and europium labeled rabbit-derived antibody (PerkinElmer). Envision Multi-label Analyzer (PerkinElmer) for signal detection.
They were respectively dissolved in an enzyme buffer solution comprising: 50 mM hydroxyethylpiperazine ethanesulfuric acid solution at pH 7.5, 1 mM ethylenediaminetetraacetic acid, 10 mM magnesium chloride, 0.01% Brij-35, 2 mM dithiothreitol. After the reaction was begun, the OptiPlate 384-well plate was sealed with a top heat seal film TopSeal-A, and incubated at room temperature for 180 minutes.
The termination buffer solution of the enzymatic reaction was prepared, and EDTA was dissolved in a 1-fold diluted assay buffer solution. The reaction was terminated and incubated at room temperature for 5 minutes. 5 μL of the assay mixed solution (prepared with europium labeled anti-myelin basic protein antibody and europium labeled rabbit-derived antibody, respectively) was added to the reactions of CDK4/cyclin D1 and CDK6/cyclin D1, respectively, and incubated at room temperature for 60 minutes. The reaction signal was detected by Envision according to the time-resolved fluorescence resonance energy transfer theory.

NCI-H358 cells = assay: Cell viability assay NCI-H358 (CellTiter-Glo); assay type: cell-based; conditions: Homo sapiens, 168 h; NCI-H358, incubated for 7 days
Description: The NCI-H358 cell line is from the cell bank of the Department of Biology of WuXi Apptec Co. Ltd. Envision Multi-Label Analyzer (PerkinElmer).
1) 100 μL of phosphate buffer solution was added to the peripheral wells of the 384-well plate and 40 μL of NCI-H358 cell suspension was added to the other wells containing 250 NCI-H358 cells. The cell plate was then placed in a carbon dioxide incubator and incubated overnight.
2) A 3-fold gradient dilution was subjected to the tested compounds using Echo. Each compound was diluted by 10 concentration gradients (diluted from 25 μM to 1.27 nM), 100 nL of which was added to the corresponding wells of the cell plate. The cell plate was then placed in a carbon dioxide incubator and incubated for 7 days.
3) 20 μL of Promega CellTiter-Glo reagent was added to each well of the cell plate, and shaken for 10 minutes away from light at room temperature to stabilize the luminescence signal. Readings were performed using a PerkinElmer Envision Multi-label Analyzer.
Table 1 provides the inhibitory activity of the compounds of the present invention against the proliferation of H358 cells.

solubility thermodynamic at 24 h [1]: 6.42 mM (≈ 3330 µg/mL)
pIC50 (CDK4/cyclin D1): 8.13
pIC50 (NCI-H358 cells): 6.75
Structure (SMILES): CC(=O)c1c(C)c2cnc(Nc3cnc(N4CCN(CCN(C)C)CC4)cn3)cc2n(C2CCCC2)c1=O [Example 34]
Gross tumor volume, 0 day ([2]; 0 day): 132 mm^3
Gross tumor volume, 7 days ([2]; 7 days): 416 mm^3
Gross tumor volume, 14 days ([2]; 14 days): 695 mm^3
Gross tumor volume, 21 days ([2]; 21 days): 963 mm^3
